Measured values: patent US12358932B2, “Chemical compounds” (BORAH, INC., priority 2019, dated 2025)

biological target: T1, Recombinant human PDE4B (Homo sapiens, UniProt Q07343); assay: PDE4B Phosphodiesterase Assay; type: biochemical; design: key to Activity Note: PDE4: The (+) symbols identify a compound of the present disclosure with the noted target activity; +*: The (*) symbols indicate preferential activity, where the greater number identifies the most preferred compounds; +**: The (*) symbols indicate preferential activity, where the greater number identifies the most preferred compounds; +***: The (*) symbols indicate preferential activity, where the greater number identifies the most preferred compounds; details: compound list; + = noted target activity
T1 construct: aa 305-end; GST (N); made in house; host or cells: Sf9 insect cells (baculovirus)
Procedure: The assay is based on the fluorescence polarization measuring AMP/GMP production as a result of the enzyme activity by displacement of Tracer binding to the AMP/GMP antibody. • Reaction Buffer: 10 mM Tris-HCl, pH 7.5, 5 mM MgCl2, 0.01% Brij 35, 1 mM DTT and 1% DMSO. • Enzyme: Recombinant human PDE4B (Gene Accession #NM_002600; aa 305-end) was expressed by baculovirus in Sf9 insect cells using an N-terminal GST tag. Mw=78 kDa. • Substrate: 1 μM cAMP • Detection: Transcreener® AMP2/GMP2 Antibody AMP2/GMP2 AlexaFluor 633 Tracer Reaction Procedure: • 1. Prepared indicated enzyme and substrate in freshly prepared Reaction Buffer • 2. Delivered enzyme solution into the reaction well • 3. Delivered compounds in 100% DMSO into the enzyme solution by Acoustic technology (Echo550; nanoliter range), incubated for 10 min at room temperature • 4. Delivered substrate solution into the reaction well to initiate the reaction • 5. Incubated for 1 h at room temperature • 6. Added detection mixture (Tracer and antibody in the stop buffer) to stop the reaction and incubated for 90 min with gentle mixing. The fluorescence polarization was measured at Ex/Em 620/688.
Data Analysis: The FP signals were converted into nM product based on an AMP/GMP standard curve and calculated % Enzyme activity relative to DMSO control by Excel. The curve fit was performed using GraphPad prism.

T1 sequence (Q07343 305-736 limits assumed): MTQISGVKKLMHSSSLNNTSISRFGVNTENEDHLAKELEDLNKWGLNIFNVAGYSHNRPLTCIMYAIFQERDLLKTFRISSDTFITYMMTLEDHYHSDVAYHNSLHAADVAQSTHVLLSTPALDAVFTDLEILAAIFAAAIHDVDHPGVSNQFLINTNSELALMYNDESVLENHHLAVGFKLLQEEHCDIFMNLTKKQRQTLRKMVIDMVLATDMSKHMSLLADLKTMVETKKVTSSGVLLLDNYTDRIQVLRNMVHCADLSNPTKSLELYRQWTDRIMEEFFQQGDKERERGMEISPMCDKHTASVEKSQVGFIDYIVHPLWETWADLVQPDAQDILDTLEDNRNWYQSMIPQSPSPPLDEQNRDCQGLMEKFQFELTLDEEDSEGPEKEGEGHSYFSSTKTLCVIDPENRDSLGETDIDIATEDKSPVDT

SMILES	Activity Note: PDE4
Cc1cnc(Nc2ccc3c(c2)COB3O)nc1Nc1cccc(CO)c1 [5-((4-((3-(hydroxymethyl)phenyl)amino)-5-methylpyrimidin-2-yl)amino)benzo[c][1,2]oxaborol-1(3H)-ol]	+
Cc1cnc(Nc2ccc3c(c2)COB3O)nc1Nc1cccc2c1C(=O)N(CCF)C2 [2-(2-fluoroethyl)-7-((2-((1-hydroxy-1,3-dihydrobenzo[c][1,2]oxaborol-5-yl)amino)-5-methylpyrimidin-4-yl)amino)isoindolin-1-one]	+
OB1OCc2cc(Nc3ncc(Cl)c(NCCC4CC4)n3)ccc21 [5-((5-chloro-4-((2-cyclopropylethyl)amino)pyrimidin-2-yl)amino)benzo[c][1,2]oxaborol-1(3H)-ol]	+
Cc1ccccc1Nc1nc(Nc2ccc3c(c2)COB3O)ncc1C [5-((5-methyl-4-(o-tolylamino)pyrimidin-2-yl)amino)benzo[c][1,2]oxaborol-1(3H)-ol]	+
CCCNc1nc(Nc2ccc3c(c2)COB3O)ncc1F [5-((5-fluoro-4-(propylamino)pyrimidin-2-yl)amino)benzo[c][1,2]oxaborol-1(3H)-ol]	+
Cc1cnc(Nc2ccc3c(c2)COB3O)nc1Nc1ccccc1F [5-((4-((2-fluorophenyl)amino)-5-methylpyrimidin-2-yl)amino)benzo[c][1,2]oxaborol-1(3H)-ol]	+
CCC(CC)Nc1nc(Nc2ccc3c(c2)COB3O)ncc1C [5-((5-methyl-4-(pentan-3-ylamino)pyrimidin-2-yl)amino)benzo[c][1,2]oxaborol-1(3H)-ol]	+
Cc1cnc(Nc2ccc3c(c2)COB3O)nc1OC1CCCC1 [5-((4-(cyclopentyloxy)-5-methylpyrimidin-2-yl)amino)benzo[c][1,2]oxaborol-1(3H)-ol]	+
CCC(CC)Nc1ccnc(Nc2ccc3c(c2)COB3O)n1 [5-((4-(pentan-3-ylamino)pyrimidin-2-yl)amino)benzo[c][1,2]oxaborol-1(3H)-ol]	+

test system: JAK; assay: Biochemical Kinase Assay Protocol (JAK); details: compound list; + = noted target activity, number of * = preference
Procedure: Biochemical Kinase Assay Protocol (JAK, TrkA, Syk, Tyk2)
Reagent: Base Reaction buffer; 20 mM Hepes (pH 7.5), 10 mM MgCl2, 1 mM EGTA, 0.02% Brij™ 35, 0.02 mg/ml BSA, 0.1 mM Na3VO4, 2 mM DTT, 1% DMSO, where required cofactors are added individually to each kinase reaction.
• 1. Prepare indicated substrate in freshly prepared Base Reaction Buffer • 2. Deliver any required cofactors to the substrate solution above • 3. Deliver indicated kinase (JAK or TrkA) into the substrate solution and gently mix • 4. Deliver compounds in DMSO into the kinase reaction mixture by Acoustic technology (Echo550; nanoliter range), incubate for 20 minutes at room temperature • 5. Deliver 33P-ATP into the reaction mixture to initiate the reaction. • 6. Incubate kinase reaction for 2 hours at room temperature • 7. Reactions are spotted onto P81 ion exchange paper • 8. Detect kinase activity by filter-binding method. PDE4B Phosphodiesterase Assay

SMILES	Activity Note: JAK
Cc1cnc(Nc2ccc3c(c2C)B(O)OC3)nc1Nc1cccc(S(C)(=O)=O)c1 [7-methyl-6-((5-methyl-4-((3-(methylsulfonyl)phenyl)amino)pyrimidin-2-yl)amino)benzo[c][1,2]oxaborol-1(3H)-ol]	JAK+*
CCc1cc(N(c2ncc(C)c(NC(CC)CC)n2)S(=O)(=O)C(F)(F)F)cc2c1B(O)OC2 [N-(7-ethyl-1-hydroxy-1,3-dihydrobenzo[c][1,2]oxaborol-5-yl)-1,1,1-trifluoro-N-(5-methyl-4-(pentan-3-ylamino)pyrimidin-2-yl)methanesulfonamide]	JAK+*
Cc1cnc(Nc2cc3c(c(C(F)(F)F)c2)B(O)OC3)nc1Nc1ccccc1 [5-((5-methyl-4-(phenylamino)pyrimidin-2-yl)amino)-7-(trifluoromethyl)benzo[c][1,2]oxaborol-1(3H)-ol]	JAK+***
CC1(C)OB(O)c2c(Cl)cc(Nc3ncc(Cl)c(NC4CCCC4)n3)cc21 [7-chloro-5-((5-chloro-4-(cyclopentylamino)pyrimidin-2-yl)amino)-3,3-dimethylbenzo[c][1,2]oxaborol-1(3H)-ol]	JAK+***
CCC(CC)Nc1nc(Nc2cc3c(c(C(F)(F)F)c2)B(O)OC3)ncc1C [5-((5-methyl-4-(pentan-3-ylamino)pyrimidin-2-yl)amino)-7-(trifluoromethyl)benzo[c][1,2]oxaborol-1(3H)-ol]	JAK+***
CCc1cc(Nc2ncc(Cl)c(NC3CCCC3)n2)cc2c1B(O)OC2 [5-((5-chloro-4-(cyclopentylamino)pyrimidin-2-yl)amino)-7-ethylbenzo[c][1,2]oxaborol-1(3H)-ol]	JAK+***
Cc1cnc(Nc2ccc3c(c2)C(C)OB3O)nc1NC1CCCC1 (stereo not shown) [5-((4-(cyclopentylamino)-5-methylpyrimidin-2-yl)amino)-3-methylbenzo[c][1,2]oxaborol-1(3H)-ol]	JAK+***
Cc1cnc(Nc2ccc3c(c2)B(O)OC3)nc1NC1CCCCC1 [6-((4-(cyclohexylamino)-5-methylpyrimidin-2-yl)amino)benzo[c][1,2]oxaborol-1(3H)-ol]	JAK+*
Cc1cc(Nc2ncc(Cl)c(NC3CCCC3)n2)cc2c1B(O)OC2(C)C [5-((5-chloro-4-(cyclopentylamino)pyrimidin-2-yl)amino)-3,3,7-trimethylbenzo[c][1,2]oxaborol-1(3H)-ol]	JAK+***
Cc1cnc(Nc2ccc3c(c2)B(O)OC3(C)C)nc1Nc1cccc(S(C)(=O)=O)c1 [3,3-dimethyl-6-((5-methyl-4-((3-(methylsulfonyl)phenyl)amino)pyrimidin-2-yl)amino)benzo[c][1,2]oxaborol-1(3H)-ol]	JAK+**
Cc1cnc(Nc2ccc3c(c2)CCOB3O)nc1NC1CCCC1 [6-((4-(cyclopentylamino)-5-methylpyrimidin-2-yl)amino)-3,4-dihydro-1H-benzo[c][1,2]oxaborinin-1-ol]	JAK+***
CCC(CC)Nc1nc(Nc2cc(Cl)c3c(c2)COB3O)ncc1C [7-chloro-5-((5-methyl-4-(pentan-3-ylamino)pyrimidin-2-yl)amino)benzo[c][1,2]oxaborol-1(3H)-ol]	JAK+***
OB1OCc2cc(Nc3ncc(Cl)c(NC4CCCC4)n3)cc(Cl)c21 [7-chloro-5-((5-chloro-4-(cyclopentylamino)pyrimidin-2-yl)amino)benzo[c][1,2]oxaborol-1(3H)-ol]	JAK+***
CCC(CC)Nc1nc(Nc2ccc3c(c2)C(C)(C)OB3O)ncc1C [3,3-dimethyl-5-((5-methyl-4-(pentan-3-ylamino)pyrimidin-2-yl)amino)benzo[c][1,2]oxaborol-1(3H)-ol]	JAK+***
Cc1cnc(Nc2ccc3c(c2F)B(O)OC3)nc1Nc1cccc(S(C)(=O)=O)c1 [7-fluoro-6-((5-methyl-4-((3-(methylsulfonyl)phenyl)amino)pyrimidin-2-yl)amino)benzo[c][1,2]oxaborol-1(3H)-ol]	JAK+*
CCC(CC)Nc1nc(Nc2cc(C)c3c(c2)C(C)(C)OB3O)ncc1C [3,3,7-trimethyl-5-((5-methyl-4-(pentan-3-ylamino)pyrimidin-2-yl)amino)benzo[c][1,2]oxaborol-1(3H)-ol]	JAK+***
Cc1cnc(Nc2cc(C)c3c(c2)CCOB3O)nc1NC1CCCC1 [6-((4-(cyclopentylamino)-5-methylpyrimidin-2-yl)amino)-8-methyl-3,4-dihydro-1H-benzo[c][1,2]oxaborinin-1-ol]	JAK+*
CCC(CC)Nc1nc(Nc2cc(Cl)c3c(c2)C(C)(C)OB3O)ncc1C [7-chloro-3,3-dimethyl-5-((5-methyl-4-(pentan-3-ylamino)pyrimidin-2-yl)amino)benzo[c][1,2]oxaborol-1(3H)-ol]	JAK+***
Cc1cnc(Nc2ccc3c(c2)B(O)OC3)nc1Nc1cccc(S(C)(=O)=O)c1 [6-((5-methyl-4-((3-(methylsulfonyl)phenyl)amino)pyrimidin-2-yl)amino)benzo[c][1,2]oxaborol-1(3H)-ol]	JAK+*
CCC(CC)Nc1nc(Nc2cc(C)c3c(c2)C(C)OB3O)ncc1C (stereo not shown) [3,7-dimethyl-5-((5-methyl-4-(pentan-3-ylamino)pyrimidin-2-yl)amino)benzo[c][1,2]oxaborol-1(3H)-ol]	JAK+***
CCC(CC)Nc1nc(Nc2ccc3c(c2)C(C)OB3O)ncc1C (stereo not shown) [3-methyl-5-((5-methyl-4-(pentan-3-ylamino)pyrimidin-2-yl)amino)benzo[c][1,2]oxaborol-1(3H)-ol]	JAK+***
Cc1cnc(Nc2ccc3c(c2)C(C)OB3O)nc1Nc1ccccc1 (stereo not shown) [3-methyl-5-((5-methyl-4-(phenylamino)pyrimidin-2-yl)amino)benzo[c][1,2]oxaborol-1(3H)-ol]	JAK+***
